From ChEMBL document CHEMBL1137915, “SAR and factor IXa crystal structure of a dual inhibitor of factors IXa and Xa” (Bioorg Med Chem Lett, 2004)

Experiments:
Coagulation factor IX = Coagulation factor IX (Homo sapiens, UniProt P00740); experiment: Binding affinity towards human factor IXa
Coagulation factor X = Coagulation factor X (Homo sapiens, UniProt P00742); experiment: Binding affinity towards human factor Xa
Coagulation factor X, sequence (P00742 41-179 limits assumed): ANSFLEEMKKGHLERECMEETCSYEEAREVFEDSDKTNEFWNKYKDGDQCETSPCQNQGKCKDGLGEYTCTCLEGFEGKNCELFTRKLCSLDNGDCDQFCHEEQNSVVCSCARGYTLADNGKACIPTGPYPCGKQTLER
Coagulation factor X, sequence (P00742 235-488 limits assumed): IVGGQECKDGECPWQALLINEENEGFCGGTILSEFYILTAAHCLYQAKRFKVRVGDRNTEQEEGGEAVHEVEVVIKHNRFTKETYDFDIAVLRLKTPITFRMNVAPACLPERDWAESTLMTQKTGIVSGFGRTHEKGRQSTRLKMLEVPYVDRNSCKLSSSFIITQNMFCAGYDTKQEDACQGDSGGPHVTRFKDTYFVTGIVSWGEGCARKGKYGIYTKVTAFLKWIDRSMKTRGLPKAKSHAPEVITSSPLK

Coagulation factor IX, sequence (P00740 47-191 limits assumed): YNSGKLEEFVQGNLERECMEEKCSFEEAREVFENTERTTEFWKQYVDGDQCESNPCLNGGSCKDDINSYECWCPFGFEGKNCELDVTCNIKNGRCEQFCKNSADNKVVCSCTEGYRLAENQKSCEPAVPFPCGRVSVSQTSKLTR
Coagulation factor IX, sequence (P00740 227-461 limits assumed): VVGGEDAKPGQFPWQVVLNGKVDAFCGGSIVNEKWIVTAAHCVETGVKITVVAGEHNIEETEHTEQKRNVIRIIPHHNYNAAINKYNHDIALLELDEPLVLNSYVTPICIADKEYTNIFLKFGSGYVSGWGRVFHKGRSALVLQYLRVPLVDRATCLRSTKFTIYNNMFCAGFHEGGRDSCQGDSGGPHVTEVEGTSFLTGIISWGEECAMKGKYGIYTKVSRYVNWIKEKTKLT

Ki (Coagulation factor IX) | Ki (Coagulation factor X) | Structure (SMILES)
11 nM | 0.09 nM | N=C(N)c1cccc(-n2nc(C(F)(F)F)cc2C(=O)Nc2ccc(-n3cnc4ccccc43)cc2)c1
5.1 nM | – | N=C(N)c1cccc(-n2nc(C(F)(F)F)cc2C(=O)Nc2ccc(-n3cnc4ccc(Cl)cc43)cc2F)c1
11 nM | – | N=C(N)c1cccc(-n2nc(Cn3cnnn3)cc2C(=O)Nc2ccc(-n3cnc4ccccc43)cc2)c1
11 nM | – | N=C(N)c1cccc(-n2nc(C(F)(F)F)cc2C(=O)Nc2ccc(-n3cnc4cc([N+](=O)[O-])ccc43)cc2F)c1
10 nM | – | Cc1ccc2c(c1)ncn2-c1ccc(NC(=O)c2cc(C(F)(F)F)nn2-c2cccc(C(=N)N)c2)c(F)c1
20 nM | – | N=C(N)c1cccc(-n2nc(Cn3ccnn3)cc2C(=O)Nc2ccc(-n3cnc4ccccc43)cc2)c1
5.5 nM | – | N=C(N)c1cccc(-n2nc(-c3cccnc3)cc2C(=O)Nc2ccc(-n3cnc4ccccc43)cc2)c1
11 nM | – | N=C(N)c1cccc(-n2nc(C(F)(F)F)cc2C(=O)Nc2ccc(-n3cnc4cc(N)ccc43)cc2F)c1
120 nM | – | N=C(N)c1cccc(-n2nc(Cn3ccnc3)cc2C(=O)Nc2ccc(-n3cnc4ccccc43)cc2)c1
72 nM | 0.09 nM | N=C(N)c1cccc(-n2nc(C(F)(F)F)cc2C(=O)Nc2ccc(-n3ccnc3)cc2)c1
7.9 nM | 0.04 nM | N=C(N)c1cccc(-n2nc(C(F)(F)F)cc2C(=O)Nc2ccc(-n3cnc4ccncc43)cc2F)c1
6.4 nM | – | N=C(N)c1cccc(-n2nc(C(F)(F)F)cc2C(=O)Nc2ccc(-n3cnc4cc(C(F)(F)F)ccc43)cc2F)c1
1900 nM | – | Cc1cc(C(=O)Nc2ccc(-c3ccccc3S(N)(=O)=O)cc2)n(-c2cccc(C(=N)N)c2)n1
13 nM | 0.02 nM | N=C(N)c1cccc(-n2nc(C(F)(F)F)cc2C(=O)Nc2ccc(-n3cnc4cccnc43)cc2F)c1
7.9 nM | 0.02 nM | N=C(N)c1cccc(-n2nc(C(F)(F)F)cc2C(=O)Nc2ccc(-n3cnc4ncccc43)cc2F)c1
8 nM | 0.03 nM | N=C(N)c1cccc(-n2nc(C(F)(F)F)cc2C(=O)Nc2ccc(-n3cnc4cnccc43)cc2F)c1
82 nM | – | Cc1cc(C(=O)Nc2ccc(-n3cnc4ccccc43)cc2)n(-c2cccc(C(=N)N)c2)n1
4.2 nM | – | N=C(N)c1cccc(-n2nc(C(F)(F)F)cc2C(=O)Nc2ccc(-n3cnc4cc(Cl)ccc43)cc2F)c1
1700 nM | – | N=C(N)c1cccc(-n2nc(C(F)(F)F)cc2C(=O)Nc2ccc(-n3ccc4ccccc43)cc2F)c1
15 nM | – | N=C(N)c1cccc(-n2nc(-c3cccnc3)cc2C(=O)Nc2ccc(-n3cnc4cc(Cl)ccc43)cc2)c1
26 nM | – | N=C(N)c1cccc(-n2nc(C(F)(F)F)cc2C(=O)Nc2ccc(-n3cnc4cc(Cl)c(Cl)cc43)cc2F)c1
190 nM | 0.05 nM | N=C(N)c1cccc(-n2nc(C(F)(F)F)cc2C(=O)Nc2ccc(N3C(=O)N=C4C=CC=CC43)cc2)c1 (stereo unspecified)
44 nM | 0.19 nM | N=C(N)c1cccc(-n2nc(Cn3cncn3)cc2C(=O)Nc2ccc(-n3cnc4ccccc43)cc2)c1
